Assay [1] concerns the target T1, HCV polymerase (NS5B) type 1b (Hepatitis C virus genotype 1b, UniProt P26663).
T1 construct: a region encoding NS5B (J Virol 1991 March, 65(3), 1105-13, 544 amino acids after deletion of 47 amino acids on the C-terminal); 6xHis (C); made in house; host or cells: Escherichia coli
Nature of the assay: Assay of enzyme (HCV polymerase) inhibitory activity, type 1b enzyme. In kind it is biochemical, HCV BK strain (type 1b). The text has this: (§1) The evaluation of the HCV polymerase inhibitory activity of the compound of the present invention is explained in the following. This polymerase is an enzyme coded for by the non-structural protein region called NS5B on the genome RNA of HCV.
(§2) i) Preparation of Enzyme (HCV Polymerase)
(§3) Using, as a template, a cDNA clone corresponding to the full length genome RNA of HCV BK strain (type 1b) obtained from the blood of a patient with hepatitis C, a region encoding NS5B (J Virol 1991 March, 65(3), 1105-13, 544 amino acids after deletion of 47 amino acids on the C-terminal) was amplified by PCR. The objective gene was prepared by adding a 6 His tag {base pair encoding 6 continuous histidine (His)} to the 3′ end thereof and transformed to Escherichia coli. The Escherichia coli capable of producing the objective protein was cultured. The obtained cells were suspended in a buffer solution and crushed in a microfluidizer. The supernatant was obtained by centrifugation and applied to various column chromatographys {mono-S, Sephacryl S-200 (Pharmacia)}, inclusive of metal chelate chromatography, to give a standard enzyme product.
(§4) ii) Synthesis of Substrate RNA
(§5) Using a synthetic primer designed based on the sequence of HCV genomic 3′ untranslated region, a DNA fragment (148 bp) containing polyU and 3′X sequence was entirely synthesized and cloned into plasmid pBluescript SK II(+) (Stratagene). The cDNA encoding full length NS5B, which was prepared in i) above, was digested with restriction enzyme KpnI to give a cDNA fragment containing the nucleotide sequence of from the restriction enzyme cleavage site to the termination codon. This cDNA fragment was inserted into the upstream of 3′ untranslated region of the DNA in pBluescript SK II(+) and ligated. The about 450 bp inserted DNA sequence was used as a template in the preparation of substrate RNA. This plasmid was cleaved immediately after the 3′X sequence, linearized and purified by phenol-chloroform treatment and ethanol precipitation to give DNA.
(§6) RNA was synthesized (37° C., 4 hr) by run-off method using this purified DNA as a template, a promoter of pBluescript SK II(+), MEGAscript RNA synthesis kit (Ambion) and T7 RNA polymerase. DNase I was added and the mixture was incubated for 1 hr. The template DNA was removed by decomposition to give a crude RNA product. This crude product was treated with phenol-chloroform and purified by ethanol precipitation to give the objective substrate RNA.
(§7) This RNA was applied to urea denaturation polyacrylamide gel electrophoresis to confirm the quality thereof and preserved at −80° C.
(§8) iii) Assay of Enzyme (HCV Polymerase) inhibitory activity
(§9) A test substance (compound of the present invention) and a reaction mixture (30 μl) having the following composition were reacted at 25° C. for 60 min.
(§10) 10% Trichloroacetic acid and 1% sodium pyrophosphate solution (150 μl) at 4° C. was added to this reaction mixture to stop the reaction. The reaction mixture was left standing at 4° C. for 15 min to insolubilize RNA. This RNA was trapped on a glass filter (PerkinElmer, GF/B) upon filtration by suction. This filter was washed with a solution containing 1% trichloroacetic acid and 0.1% sodium pyrophosphate, washed with 90% ethanol and dried. A liquid scintillation cocktail (PerkinElmer) was added and the radioactivity of RNA synthesized by the enzyme reaction was measured on a liquid scintillation counter.
The HCV polymerase inhibitory activity (IC50) of the compound of the present invention was calculated from the values of radioactivity of the enzyme reaction with and without the test substance.
Reaction mixture: HCV polymerase (type 1b 0.5 μg/ml or type 1a 1.5 μg/m) obtained in i), substrate RNA (5 μg/ml) obtained in ii), ATP (50 μM), GTP (50 μM), CTP (50 μM), UTP (2 μM), [5,6-^3H]UTP (30-60 Ci/mmol (Amersham Biosciences), 1 μCi) 20 mM Tris-HCl (pH 7.5), EDTA (1 mM), MgCl2 (5 mM), NaCl (50 mM), DTT (1 mM), BSA (0.01%)

Assay [2] concerns the target T2, HCV polymerase (NS5B) type 1a (Hepatitis C virus genotype 1a, UniProt P26664).
T2 construct: made in house; host or cells: Escherichia coli (by the 'similar method' of the 1b enzyme)
Description: Assay of enzyme (HCV polymerase) inhibitory activity, type 1a enzyme. In kind it is biochemical, HCV type 1a (cloned from the blood of patients).
Text: as §1, §2, §3
Standard enzyme products for type 1a (cloned from the blood of patients) were also obtained by a similar method.
as §4, §5, §6, §7, §8, §9, §10
The HCV polymerase inhibitory activity (IC50) of the compound of the present invention was calculated from the values of radioactivity of the enzyme reaction with and without the test substance. […]

Setting [3] is: HCV polymerase inhibitory activity (IC50), 1b, type 1b enzyme 0.5 μg/ml, 25° C., 60 min.
Setting [4] is: HCV polymerase inhibitory activity (IC50), 1a, type 1a enzyme 1.5 μg/ml, 25° C., 60 min.
[5] abbreviates: HCV polymerase inhibitory activity IC50, 1b, type 1b enzyme.
Where [6] appears, read: HCV polymerase inhibitory activity IC50, 1a, type 1a enzyme.

Structures can show the parent of a compound that is named as a salt.

In the case of `COc1ccc(CC(=O)N2CCN(S(=O)(=O)c3ccc(C(F)(F)F)cc3)[C@@H](C(=O)NCc3ccc(C(C)C)cc3)C2)cc1` [Example 266, (R)-4-[2-(4-methoxy-phenyl)-acetyl]-1-(4-trifluoromethyl-benzenesulfonyl)-piperazine-2-carboxylic acid 4-isopropyl-benzylamide], the IC50 in assay [1] (setting [3]) and in assay [2] (setting [4]) was 100 to 1000 nM throughout.
In the case of `NC(=O)c1ncc2sc(N3CCN(S(=O)(=O)c4ccc(OC(F)(F)F)cc4)[C@@H](C(=O)NCc4ccc(OC(F)(F)F)cc4)C3)nc2n1` [Example 979, 2-[(R)-4-(4-trifluoromethoxy-benzenesulfonyl)-3-(4-trifluoromethoxy-benzylcarbamoyl)-piperazin-1-yl]-thiazolo[4,5-d]pyrimidine-5-carboxylic acid amide], the IC50 in assay [1] (setting [5]) and in assay [2] (setting [6]) was less than 100 nM throughout.
For `O=C(NCc1ccc(OC(F)(F)F)cc1)[C@H]1CN(c2nc3nc(C4CCC4)ncc3s2)CCN1S(=O)(=O)c1ccc(C(F)(F)F)cc1` [Example 1072, (R)-4-(5-cyclobutyl-thiazolo[4,5-d]pyrimidin-2-yl)-1-(4-trifluoromethyl-benzenesulfonyl)-piperazine-2-carboxylic acid 4-trifluoromethoxy-benzylamide], the IC50 in assay [1] (setting [5]) and in assay [2] (setting [6]) was less than 100 nM in each case.
For `O=C(NCc1ccc(OC(F)(F)F)cc1)[C@H]1CN(c2nc3nc[nH]c(=O)c3s2)CCN1S(=O)(=O)c1ccc(OC(F)(F)F)cc1` [Example 784, (R)-4-(7-oxo-6,7-dihydro-thiazolo[4,5-d]pyrimidin-2-yl)-1-(4-trifluoromethoxy-benzenesulfonyl)-piperazine-2-carboxylic acid 4-trifluoromethoxy-benzylamide], the IC50 in assay [1] (setting [5]) and in assay [2] (setting [6]) was less than 100 nM throughout.
Consider `CCCc1ccc(CNC(=O)[C@H]2CN(c3cnc4cncnc4n3)CCN2S(=O)(=O)c2ccc(OC(F)(F)F)cc2)cc1O` [Example 723, (R)-4-pteridin-7-yl-1-(4-trifluoromethoxy-benzenesulfonyl)-piperazine-2-carboxylic acid 3-hydroxy-4-propyl-benzylamide], for which the IC50 (in general, the point on the concentration scale where inhibition reaches its midpoint) in assay [1] (setting [5]) is less than 100 nM; in assay [2] (setting [6]), 100 to 1000 nM.
In the case of `CC(=O)N1CCN(S(=O)(=O)c2ccc(Br)c(F)c2)[C@@H](C(=O)NCc2ccc(C(C)C)cc2)C1` [Example 469, (R)-4-acetyl-1-(4-bromo-3-fluoro-benzenesulfonyl)-piperazine-2-carboxylic acid 4-isopropyl-benzylamide], the IC50 in assay [1] (setting [3]) and in assay [2] (setting [4]) was 100 to 1000 nM in each case.
In the case of `CCCc1ccc(CNC(=O)[C@H]2CN(c3nc(C)c(C(O)C(=O)OCC)s3)CCN2S(=O)(=O)c2ccc(OC(F)(F)F)cc2)cc1` (stereo partly drawn) [Example 856, hydroxy-{4-methyl-2-[(R)-3-(4-propyl-benzylcarbamoyl)-4-(4-trifluoromethoxy-benzenesulfonyl)-piperazin-1-yl]-thiazol-5-yl}-acetic acid ethyl ester], the figures for the half-maximal inhibitory concentration (IC50) in assay [1] (setting [5]) and in assay [2] (setting [6]) were less than 100 nM and 100 to 1000 nM, respectively.
Turning to `O=C(NCc1ccc(OC(F)(F)F)cc1)[C@H]1CN(c2nc3nc(O)nc(O)c3s2)CCN1S(=O)(=O)c1ccc(OC(F)(F)F)cc1` [Example 888, (R)-4-(5,7-dihydroxy-thiazolo[4,5-d]pyrimidin-2-yl)-1-(4-trifluoromethoxy-benzenesulfonyl)-piperazine-2-carboxylic acid 4-trifluoromethoxy-benzylamide], the IC50 in assay [1] (setting [5]) and in assay [2] (setting [6]) was less than 100 nM throughout.
For `CC(C)(O)C#Cc1ncc2sc(N3CCN(S(=O)(=O)c4ccc(OC(F)(F)F)cc4)[C@@H](C(=O)NCc4ccc(OC(F)(F)F)cc4)C3)nc2n1` [Example 994, (R)-4-[5-(3-hydroxy-3-methyl-but-1-ynyl)-thiazolo[4,5-d]pyrimidin-2-yl]-1-(4-trifluoromethoxy-benzenesulfonyl)-piperazine-2-carboxylic acid 4-trifluoromethoxy-benzylamide], the IC50 in assay [1] (setting [5]) and in assay [2] (setting [6]) was less than 100 nM in each case.
In the case of `CC(=O)N1CCN(S(=O)(=O)c2ccc(OC(F)(F)F)cc2)[C@@H](C(=O)NCc2ccc(C(F)(F)C(F)(F)F)cc2)C1` [Example 550, (R)-4-acetyl-1-(4-trifluoromethoxy-benzenesulfonyl)-piperazine-2-carboxylic acid 4-pentafluoroethyl-benzylamide], the IC50 in assay [1] (setting [3]) and in assay [2] (setting [4]) was 100 to 1000 nM throughout.
Regarding `CC(=O)N1CCN(S(=O)(=O)c2ccc(C(C)C)cc2)C(C(=O)NCc2cccc(OC(F)(F)F)c2)C1` (centres unmarked) [Example 121, 4-acetyl-1-(4-isopropyl-benzenesulfonyl)-piperazine-2-carboxylic acid 3-trifluoromethoxy-benzylamide], the IC50 in assay [1] (setting [3]) and in assay [2] (setting [4]) was greater than 1000 nM throughout.
In the case of `CCCc1ccc(CNC(=O)[C@H]2CN(c3nc(C)c(C(=O)O)s3)CCN2S(=O)(=O)c2ccc(CC)cc2)cc1` [Example 414, 2-[(R)-4-(4-ethyl-benzenesulfonyl)-3-(4-propyl-benzylcarbamoyl)-piperazin-1-yl]-4-methyl-thiazole-5-carboxylic acid], the IC50 in assay [1] (setting [3]) and in assay [2] (setting [4]) was less than 100 nM in each case.
Consider `CC(C)c1ccc(CNC(=O)[C@H]2CN(C(=N)N)CCN2S(=O)(=O)c2ccc(C(F)(F)F)cc2)cc1` [Example 313, (R)-4-carbamimidoyl-1-(4-trifluoromethyl-benzenesulfonyl)-piperazine-2-carboxylic acid 4-isopropyl-benzylamide hydrochloride], for which the IC50 in assay [1] (setting [3]) and in assay [2] (setting [4]) was less than 100 nM throughout.
On to `CC(=O)N1CCN(S(=O)(=O)c2ccc(Cl)cc2Cl)C(C(=O)NCc2ccc(C(F)(F)F)cc2)C1` (centres unmarked) [Example 161, 4-acetyl-1-(2,4-dichloro-benzenesulfonyl)-piperazine-2-carboxylic acid 4-trifluoromethyl-benzylamide], for which the IC50 in assay [1] (setting [3]) and in assay [2] (setting [4]) was greater than 1000 nM in each case.
Consider `COC(=O)CCCCC(=O)N1CCN(S(=O)(=O)c2ccc(C(F)(F)F)cc2)[C@@H](C(=O)NCc2ccc(C(C)C)cc2)C1` [Example 212, 6-[(R)-3-(4-isopropyl-benzylcarbamoyl)-4-(4-trifluoromethyl-benzenesulfonyl)-piperazin-1-yl]-6-oxo-hexanoic acid methyl ester], for which the IC50 in assay [1] (setting [3]) was less than 100 nM; in assay [2] (setting [4]) it was 100 to 1000 nM.
`COc1ccc(CCNC(=O)[C@H]2CN(C(C)=O)CCN2S(=O)(=O)c2ccc(OC(F)(F)F)cc2)cc1` [Example 673, (R)-4-acetyl-1-(4-trifluoromethoxy-benzenesulfonyl)-piperazine-2-carboxylic acid [2-(4-methoxy-phenyl)-ethyl]-amide]: the IC50 in assay [1] (setting [5]) and in assay [2] (setting [6]) was greater than 1000 nM in each case.
